In patent US11891442B2, “Compositions and methods for treating age-related diseases” (priority 2017, dated 2024):
“Also recorded” adds a separate entry of the source.

Key:
Assay type in all cases: cell-based, mouse
primary microglia = assay: Ex vivo microglial phagocytosis assay
Experimental: Whole brain myelin-depleted single-cell suspensions were prepared as described above. Next, a rough estimation of microglia counts from each brain was determined by strictly gating a volume-designated aliquot of the suspensions by forward scatter/side scatter on a flow cytometer (BD Accuri C6). Each suspension was adjusted to contain equal numbers of microglia per unit volume. Then, single cell brain suspensions were treated with sialidase, a CD22 blocking antibody (R&D), or no treatment for 1 hour at 37° C. with periodic agitation. Treatments were washed out and cells were resuspended in FACS buffer containing pHrodo- or CypHer5E-conjugated particles at a ratio of 50 particles per microglia. The cell-particle mixture was incubated for 1-2 hours at 37° C. with periodic agitation. Phagocytosis was stopped by transferring the suspensions to ice, where the cells were stained with antibodies to distinguish microglia. Microglial phagocytosis was assessed by flow cytometry by pre-gating live CD11b+CD45lo cells and assessing pH dependent particle fluorescence within this population. The eating gate was determined using an unfed control, and confirmed by sorting an aliquot of the sample into noneating and eating populations by FACS followed by microscopic assessment.
Whole brain myelin-depleted single-cell suspensions were prepared as described above. Next, a rough estimation of microglia counts from each brain was determined by strictly gating a volume-designated aliquot of the suspensions by forward scatter/side scatter on a flow cytometer (BD Accuri C6). Each suspension was adjusted to contain equal microglia per unit volume. Then, single cell brain suspensions were treated accordingly for 1 hour in serum free DMEM-F12 at 37° C. with periodic agitation. Treatments were washed out and cells were resuspended in FACS buffer containing pHrodo- or CypHer5E-conjugated particles at a ratio of 50 particles per microglia. The cell-particle mixture was incubated for 1-2 hours at 37° C. with periodic agitation. Phagocytosis was stopped by transferring the suspensions to ice, where the cells were stained with antibodies to distinguish microglia. Microglial phagocytosis was assessed by flow cytometry by pre-gating live CD11b+CD45lo cells and assessing pH-dependent particle fluorescence within this population. The eating gate was determined using an unfed control, and confirmed by sorting an aliquot of the sample into non-eating and eating populations by FACS followed by microscopic assessment.

BV2 cells [1] = assay: In vitro phagocytosis assay of pH-dependent fluorescent particles; conditions: for Phagocytosis of pH-sensitive fluorescent beads by BV2 cells: WT BV2, time-lapse microscopy 24 hours, sialidase 400 nM 1 hour, 3Fax-Neu5Ac 32 uM; for Phagocytosis of pH-dependent fluorescent particles by BV2 cells: wild-type BV2, no serum or young serum prior to feeding, monitored over 24 hours
Experimental: (§1) For in vitro phagocytosis assays, cells were split into a 24-well plate 8-24 hours prior to serum treatment at a density of 50,000 cells/well. Following specific treatments, wells were washed twice with PBS and fed pHrodo-labeled 3 μm amino-coated polystyrene particles (Polysciences) at a ratio of 10 particles per cell or crude myelin, isolated as previously described^47, at 1 mg/mL. pHrodo labeling was carried out as previously described to minimize background fluorescence^37. 4 phase and red fluorescent images per well were acquired every hour for 24 hours using the Incucyte S3 live cell analysis system (Essen Bioscience). For each time point, normalized phagocytosis was calculated using the following formula: red object area/phase confluence. To combine data from independent experiments, phagocytosis was calculated relative to control by setting phagocytosis at zero hours in the no serum control cell condition to 0, and this value at 24 hours to 1. Technical triplicates for each experiment were averaged, and the average of three independent experiments was reported.
(§2) For sialidase treatment, cells were incubated with 400 nM Vibrio cholerae sialidase for 1 hour at 37° C. in serum-free DMEM following serum treatment and prior to feeding. 3Fax-Neu5Ac (R&D) was used as previously described^33. The inhibitor was used at a concentration of 32 μM serially diluted in DMSO and used at a final concentration of 0.1% DMSO in DMEM. 3Fax-Neu5Ac was added with serum treatments for 48 hours prior to phagocytosis assays, and replaced in the feeding medium.
Cells were split into a 24-well plate 24 hours prior to feeding at a density of 50,000 cells/well in serum free medium. Following specific treatments, wells were washed twice with PBS and fed pHrodo-labeled 3 micron amino-coated polystyrene particles (Polysciences) at a ratio of 10 particles per cell. pHrodo labeling was carried out as previously described to minimize background fluorescence^37. 4 phase and red fluorescent images per well were acquired every hour for 24 hours using the Incucyte S3 live cell analysis system (Essen Bioscience). For each time point, normalized phagocytosis was calculated using the following formula: red object area/phase confluence. To combine data from independent experiments, phagocytosis relative to control was calculated by setting phagocytosis at zero hours in the control condition to 0, and this value at 24 hours to 1. Technical triplicates for each experiment were averaged, and the average of three independent experiments was identified.
as §2, with “Cells” for “For sialidase treatment, cells”, “DMEM” for “DMEM following serum treatment and”, “phagocytosis.” for “feeding.”, “described^58.” for “described^33.”, “uM” for “μM”

peritoneal macrophages = assay: Peritoneal macrophage phagocytosis of pH-dependent fluorescent latex particles; conditions: aged (20-month-old) compared to young (2-month-old) macrophages; sialidase
Experimental: as §1
For sialidase treatment, cells were incubated with 400 nM Vibrio cholerae sialidase for 1 hour at 37° C. in serum-free DMEM following serum treatment and prior to feeding. 3Fax-Neu5Ac (R&D) was used as previously described^33. […]

BV2 cells [2] = assay: Lectin (SNA, MAA) staining of cell-surface sialic acid by flow cytometry; conditions: WT BV2 cells pretreated with sialidase
Excerpt: Antibodies to CD11b (clone M1/70, BioLegend) and CD45 (clone 30-F11, Biolegend) were used for microglia identification (CD11b+CD45lo). For primary microglia immunophenotyping, the following lectins and antibodies were used: biotinylated Sambucus nigra agglutinin (SNA, Vector Labs), biotinylated Maackia amurensis agglutinins (MAA-1 and MAA-2, Vector), biotinylated Erythrina cristagalli lectin (ECL, EY Labs), biotinylated wheat germ agglutinin (WGA, Vector), recombinant mouse Siglec-E (R&D), recombinant mouse Siglec-F (R&D), antibodies to mouse Siglec-1 (clone REA197, Miltenyi Biotec), CD22 (clone OX-97, Biolegend), Siglec-E (clone M1304A01, Biolegend), Siglec-F (clone ES22-10D8, Miltenyi Biotec), Siglec-G (clone SH1, BD Biosciences), Siglec-H (clone 551, Biolegend), CD33 (clone 9A11, eBioscience), Galectin-3 (clone M3/38, Biolegend). For immunostaining, cells were passed through a 100 μm strainer, blocked for 10 minutes on ice with mouse Fc-blocking reagent (BD), and stained for 30 minutes on ice in DPBS containing calcium and magnesium supplemented with 1% bovine serum albumin. […] Data was analyzed using FlowJo software (TreeStar).
Antibodies to CD11b (clone M1/70, BioLegend) and CD45 (clone 30-F11, Biolegend) were used for microglia identification (CD11b+CD45lo). […] Data was analyzed using FlowJo software (TreeStar).

Compound: sialidase: Sialidase from Vibrio cholerae expressed in Escherichia coli C600; removes cell-surface sialic acid
- Ex vivo phagocytosis by microglia from aged CD22−/− mice (primary microglia; aged (18 m.o.) CD22−/−): had no effect in CD22−/− microglia
- Ex vivo phagocytosis of latex particles by aged microglia (primary microglia; aged WT mice, 1 hour pretreatment, flow cytometry): rescued phagocytosis in aged microglia; also recorded: promoted phagocytosis in WT microglia
- Ex vivo phagocytosis by microglia from 12-month-old CD22−/− mice (primary microglia; relative to age-matched wild-type control microglia): reduced pro-phagocytic response to sialidase
- Ex vivo phagocytosis of latex particles by young microglia (primary microglia; young (2-month-old) mice): did not enhance phagocytosis in already competent young microglia
- Phagocytosis of pH-sensitive fluorescent beads by CD22 KO BV2 cells (BV2 cells [1]; CD22 KO BV2 + sialidase): completely abrogated in the absence of CD22
- Phagocytosis of pH-sensitive fluorescent beads by BV2 cells (BV2 cells [1]): promotes phagocytosis in BV2 cells
- Phagocytosis of pH-dependent fluorescent particles by BV2 cells (BV2 cells [1]): promote phagocytosis in the absence of young serum
- Phagocytosis by peritoneal macrophages (peritoneal macrophages): increased phagocytosis dramatically in aged macrophages
- SNA and MAA ligand expression on the cell surface (BV2 cells [2]): reduce sialic acid ligands on the cell surface

Compound: COC(=O)C1(OC(C)=O)OC([C@H](OC(C)=O)[C@@H](COC(C)=O)OC(C)=O)C(NC(C)=O)C(OC(C)=O)C1F (stereo partly drawn) [3Fax-Neu5Ac, reference compound]
- Phagocytosis of pH-sensitive fluorescent beads by BV2 cells (BV2 cells [1]): promotes phagocytosis in BV2 cells
- Phagocytosis of pH-dependent fluorescent particles by BV2 cells (BV2 cells [1]): promoted phagocytosis in the no serum condition only

Compound: C=C1[C@@H](C)[C@H]2[C@H](Cc3ccccc3)NC(=O)[C@]23[C@H](OC(C)=O)/C=C/[C@@](C)(O)C(=O)[C@@H](C)C/C=C/[C@H]3[C@@H]1O [cytochalasin D, reference compound]
- Engulfment of pH-dependent beads by BV2 cells (flow cytometry) (BV2 cells [1]; 1 hour of feeding, used to define eating gate): actin polymerization is blocked preventing engulfment
